# Tests used:
# caspase-9 [1] = experiment: Co-immunoprecipitation of survivin and caspase-9 from HeLa cells; format: binding; settings: synchronized HeLa cells entering mitosis 12 h after thymidine release
# Experimental: (§1) Asynchronously growing HeLa cells were transfected with HA-wild type survivin (WT) or HA-survivin(T34A) (T34A), detergent-solubilized after 24 h and immunoprecipitated with an antibody to HA followed by Western blotting with an antibody to caspase-9. Arrow, position of 46 kDa proform caspase-9.
# (§2) HeLa cells were transfected with the indicated HA-constructs, synchronized to the G1/S boundary by a 16-h treatment with thymidine and released. Aliquots of the various cultures were immunoprecipitated at the indicated time intervals with an antibody to HA, and immunoblotted with antibodies to caspase-9 or HA. P, pellet; S, supernatant. For all panels, molecular weight markers are indicated on the left.
# (§3) Transfection experiments. For transient transfection, HeLa cells in C-6 tissue culture plates (Costar, Cambridge, Mass.) at ˜60-70% confluency, were incubated in 1 ml of serum-free OptiMEM medium (Life Technologies, Gaithersburg, Md.) for 20 min, and transfected with 2.5 μg of the various plasmid cDNAs plus 9 μl Lipofectamine (Life Technologies). After a 5 h incubation at 37° C., the mixture was aspirated and substituted with complete growth medium for 48-72 h. […] Gated GFP-expressing cells were analyzed for DNA content by flow cytometry on a FACSort (Becton Dickinson, San Jose, Calif.) using a Cell Quest software. […]
# caspase-9 [2] = target: T1, caspase-9 (Homo sapiens, UniProt P55211); experiment: as above; format: binding; settings: viable HeLa cells 24 h after transfection
# T1 construct: immunoprecipitated with an antibody to HA followed by Western blotting with an antibody to caspase-9; endogenous in cells; host or cells: HeLa
# T1 sequence (P55211 1-416): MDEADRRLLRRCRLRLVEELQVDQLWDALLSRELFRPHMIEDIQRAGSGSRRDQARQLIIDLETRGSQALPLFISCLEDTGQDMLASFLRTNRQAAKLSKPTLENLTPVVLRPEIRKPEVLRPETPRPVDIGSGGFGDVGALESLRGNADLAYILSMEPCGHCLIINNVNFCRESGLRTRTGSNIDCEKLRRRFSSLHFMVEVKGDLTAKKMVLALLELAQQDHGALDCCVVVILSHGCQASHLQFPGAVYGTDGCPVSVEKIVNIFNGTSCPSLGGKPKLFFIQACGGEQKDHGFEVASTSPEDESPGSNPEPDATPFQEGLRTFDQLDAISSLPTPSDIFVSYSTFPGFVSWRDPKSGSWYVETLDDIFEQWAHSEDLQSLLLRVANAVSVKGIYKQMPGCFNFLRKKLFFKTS
# Experimental: as §1, §2, §3
substance,measurement,setting,value
"survivin(T34A): dominant-negative, non-phosphorylatable survivin mutant with Thr34→Ala substitution, expressed from transfected cDNA (also HA- or GFP-tagged)",caspase-9 associated with HA immunoprecipitates by Western blotting,caspase-9 [1],did not contain associated proform or active caspase-9 bands
same,caspase-9 associated with HA immunoprecipitates by Western blotting,caspase-9 [2],presence of associated ˜46 kDa proform caspase-9
